Experiment [1] concerns carrageenin-induced edema in the hind paw of a rat. Nature of the experiment: Carrageenin Assay (carrageenin-induced edema, hind paw). It counts as in vivo, rat (male, Long Evans strain). The following applies: Rattus norvegicus, 1 h before carrageenin, edema at 3 h, compared to phenylbutazone control values, read-out: % Reduction of Edema; for inhibition in vivo at 200 mg/kg: 200 mg/kg oral. The protocol: The procedure employed is a modification of the method of Winter et al, Proc. Soc. Exptl. Biol. Med. 111:544 (1962). The device used for measurement of the paw volume is an adaptation of the water displacement procedure described by Adamkiewicz et al, Can. J. Biochem. Physiol. 33:332 (1955). Test compounds were administered orally, one hour prior to the intraplantar injection of 0.05 ml. of sterile 1.0 percent solution of carrageenin into the left hind paw of male rats (Long Evans strain) weighing between about 130-200 grams. At peak swelling time (3 hours) the volume of edema was calculated by differential paw volumes.
Table I sets forth the results obtained (indicated as percent reduction of edema compared to phenylbutazone control values) at the indicated dosages for each of the identified compounds.

The subject of experiment [2] is phenylquinone writhing in mice. Nature of the experiment: Phenylquinone Writhing Assay (analgesia). The class given is in vivo, mouse (Carworth CF1 male mice). The following applies: Mus musculus, po, read-out: Phenylquinone Writhing Assay (% Control), percent analgesia; for responders at 100 mg/kg: 100 mg/kg oral; for responders at 50 mg/kg: 50 mg/kg oral; for responders at 25 mg/kg: 25 mg/kg oral; for responders at 75 mg/kg: 75 mg/kg oral; for responders at 60 mg/kg: 60 mg/kg oral. The protocol: The phenylquinone writhing test was employed to evaluate analgesic activity according to the following procedure:
Phenylquinone (phenyl-p-benzoquinone, No. 7104, Eastman Organic Chemicals) is made up as a 0.02% aqueous solution in 5% ethyl alcohol. Phenylquinone solutions are made up fresh twice daily. Standard reference agents and the test compounds are dissolved or suspended in a 0.25% methylcellulose solution. A control group consisting of ten mice (Carworth CF1 male mice) are administered the 0.02% phenylquinone solution at a dose of 0.25 ml/mouse. The mice are housed individually and observed closely for ten minutes for exhibition of writhing. The onset of writhing occurs within three minutes and 100% of the mice must writhe within ten minutes. Test compounds are administered orally to groups of ten mice. The volume given is 0.01 ml/gram of body weight. Activity can be studied at 15, 30, 60, and 120 minutes after oral administration. After the designated time interval of a dose group has elapsed, the mice are challenged with phenylquinone intraperitoneally. Complete blocking of the writhing syndrom for the ten minute observation period in any one mouse is considered a positive analgesic response for that mouse. Conversely, if any mouse writhes definitely once it is considered not to be protected. The number of mice not writhing in group multiplied by ten equals percent analgesia for that dose at that time interval.
(In writhing tests, fewer writhes than in controls are read as antinociception.)

Structures can show the parent of a compound that is named as a salt. Where two headings read alike, the source gives them in different places.

Turning to `CSc1nncc(-c2ccc([N+](=O)[O-])cc2)n1` [Example 57, 3-methylthio-5-(4'-nitrophenyl)-1,2,4-triazine], in experiment [1], the inhibition in vivo at 200 mg/kg is 16%.

In the case of `CSc1nnc(-c2ccc(NC(C)=O)cc2)c(-c2ccc(NC(C)=O)cc2)n1` [Example 14, 3-methylthio-5,6-(4'-acetamidophenyl)-1,2,4-triazine], in experiment [1], the inhibition in vivo at 200 mg/kg came to 12%.

`CCOc1nncc(-c2ccccc2)n1` [Example 21, 3-ethoxy-5-phenyl-1,2,4-triazine]: the inhibition in vivo at 200 mg/kg in experiment [1] came to 96%.

Take `NCC(=O)NNc1nncc(-c2ccccc2)n1` [Example 113, N2-(5-Phenyl-1,2,4-Triazin-3-yl) Glycine Hydrazide (Dihydrobromide Hydrate)]: in experiment [1] (50 mg/kg oral), the inhibition in vivo at 50 mg/kg is 32%.

Consider `Cc1nnc(SCc2ccccc2)nc1C` [Example 56, 3-benzylthio-5,6-dimethyl-1,2,4-triazine], for which the inhibition in vivo at 200 mg/kg in experiment [1] is 52%.

Take `COc1nnc(-c2ccccn2)c(-c2ccccn2)n1` [Example 27, 3-methoxy-5,6-di(2'-pyridyl)-1,2,4-triazine]: the inhibition in vivo at 200 mg/kg in experiment [1] is 46%.

For `Clc1nnc(-c2ccccc2)c(-c2ccccc2)n1` [Example 51, 3-chloro-5,6-diphenyl-1,2,4-triazine], in experiment [1], the inhibition in vivo at 200 mg/kg came to 4%.

Regarding `CCc1ccc(-c2cnnc(SC)n2)cc1` [Example 62, 3-methylthio-5-(4'-ethylphenyl)-1,2,4-triazine], the inhibition in vivo at 200 mg/kg in experiment [1] was determined as 33%.

As to `Cc1ccc(Oc2nnc(-c3ccccc3)c(-c3ccccc3)n2)cc1` [Example 60, 3-(4'-methylphenoxy)-5,6-diphenyl-1,2,4-triazine], the inhibition in vivo at 200 mg/kg in experiment [1] was found to be 18%.

With `COc1ccc(-c2cnnc(OC)n2)cc1` [Example 46, 3-methoxy-5-(4'-methoxyphenyl)-1,2,4-triazine], the inhibition in vivo at 200 mg/kg in experiment [1] was determined as 17%.

`CCCCCOc1nncc(-c2ccccc2)n1` [Example 64, 3-n-pentoxy-5-phenyl-1,2,4-triazine]: in experiment [1], the inhibition in vivo at 200 mg/kg was 29%.

As to `COc1nnc(-c2ccc(OC)c(OC)c2)c(-c2ccc(OC)c(OC)c2)n1` [Example 92, 3-methoxy-5,6-bis(3',4'-dimethoxyphenyl)-1,2,4-triazine], the responders at 100 mg/kg in experiment [2] (0.25 h, 15 Min.) is 10%; in experiment [2] (0.5 h, 30 Min.) it was 10%.

On to `CCOc1nnc(-c2ccccc2)c(-c2ccccc2)n1` [Example 61, 3-ethoxy-5,6-diphenyl-1,2,4-triazine], for which the inhibition in vivo at 200 mg/kg in experiment [1] stood at 12%.

For the compound `NC(Cc1ccccc1)C(=O)NNc1nncc(-c2ccccc2)n1` (stereo not shown) [Example 116, N2-(5-phenyl-1,2,4-triazin-3-yl) phenylalanine hydrazide (dihydrobromide hydrate)], the responders at 100 mg/kg amounted to 30% in experiment [2] (0.25 h, 15 Min.); 60% in experiment [2] (0.5 h, 30 Min.); 60% in experiment [2] (1 h, 60 Min).

Regarding `NNc1nncc(-c2cccc(C(F)(F)F)c2)n1` [Example 67, 3-hydrazino-5-(3'-trifluoromethylphenyl)-1,2,4-triazine], the responders at 50 mg/kg worked out at 70% in experiment [2] (0.25 h, 15 Min.); 30% in experiment [2] (0.5 h, 30 Min.); 30% in experiment [2] (1 h, 60 Min). Besides, the responders at 100 mg/kg was found to be 10% in experiment [2] (0.25 h, 15 Min.); 60% in experiment [2] (0.5 h, 30 Min.); 40% in experiment [2] (1 h, 60 Min). Also, the responders at 25 mg/kg in experiment [2] (0.5 h, 30 Min.) amounted to 20%; in experiment [2] (1 h, 60 Min), 10%.

Take `Cc1ccc(-c2nnc(C)nc2-c2ccc(C)cc2)cc1` [Example 78, 3-methyl-5,6-bis-(4'-methylphenyl)-1,2,4-triazine]: the responders at 50 mg/kg in experiment [2] (0.25 h, 15 Min.) was determined as 20%; in experiment [2] (0.5 h, 30 Min.), 20%; in experiment [2] (1 h, 60 Min), 20%. Further, the responders at 100 mg/kg in experiment [2] (0.25 h, 15 Min.) amounted to 50%; in experiment [2] (0.5 h, 30 Min.), 80%; in experiment [2] (1 h, 60 Min), 50%.

Consider `COc1nncc(-c2c3ccccc3cc3ccccc23)n1` [Example 85, 3-methoxy-5-(9'-anthracenyl)-1,2,4-triazine], for which the responders at 100 mg/kg in experiment [2] (0.25 h, 15 Min.) came to 10%.

As to `COc1cccc(-c2cnnc(OC)n2)c1` [Example 69, 3-methoxy-5-(3'-methoxyphenyl)-1,2,4-triazine], the responders at 50 mg/kg amounted to 10% in experiment [2] (0.25 h, 15 Min.); 20% in experiment [2] (0.5 h, 30 Min.); 20% in experiment [2] (1 h, 60 Min). For the same compound, the responders at 100 mg/kg in experiment [2] (0.25 h, 15 Min.) was found to be 10%; in experiment [2] (0.5 h, 30 Min.) it was 20%; in experiment [2] (1 h, 60 Min), 10%.

Turning to `COc1cc(-c2cnnc(SC)n2)ccc1OCc1ccccc1` [Example 83, 3-methylthio-5-(3'-methoxy-4'-benzyloxyphenyl)-1,2,4-triazine], the responders at 100 mg/kg in experiment [2] (0.25 h, 15 Min.) came out at 10%.

Regarding `CSc1nncc(C(c2ccccc2)c2ccccc2)n1` [Example 87, 3-methylthio-5-diphenylmethyl-1,2,4-triazine], the responders at 100 mg/kg in experiment [2] (0.25 h, 15 Min.) is 10%; in experiment [2] (1 h, 60 Min), 10%.

As for `Cc1nnc(S(C)(=O)=O)nc1C` [Example 79, 3-methylsulfonyl-5,6-dimethyl-1,2,4-triazine], the responders at 100 mg/kg was determined as 30% in experiment [2] (0.5 h, 30 Min.) and 30% in experiment [2] (1 h, 60 Min).

On to `COc1ccc(-c2nnc(SC)nc2-c2ccc(OC)c(OC)c2)cc1OC` [Example 80, 3-methylthio-5,6-bis(3',4'-dimethoxyphenyl)-1,2,4-triazine], for which the responders at 100 mg/kg in experiment [2] (0.25 h, 15 Min.) was determined as 10%; in experiment [2] (0.5 h, 30 Min.) it was 10%.

Consider `CSc1nnc(-c2ccco2)c(-c2ccco2)n1` [Example 76, 3-methylthio-5,6-bis-(2'-furyl)-1,2,4-triazine], for which the responders at 30 mg/kg in experiment [2] (0.25 h, 30 mg/kg oral, 15 Min.) was 10%.

For the compound `NNc1nnc(-c2ccco2)c(-c2ccco2)n1` [Example 77, 3-hydrazino-5,6-bis-(2'-furyl)-1,2,4-triazine], the responders at 25 mg/kg came to 20% in experiment [2] (0.25 h, 15 Min.); 20% in experiment [2] (0.5 h, 30 Min.); 20% in experiment [2] (1 h, 60 Min). Further, the responders at 75 mg/kg in experiment [2] (0.25 h, 15 Min.) was found to be 20%; in experiment [2] (0.5 h, 30 Min.) it was 10%; in experiment [2] (1 h, 60 Min), 10%.

Regarding `COc1ccc(-c2cnnc(OC)n2)cc1` [Example 91, 3-methoxy-5-(4'-methoxyphenyl)-1,2,4-triazine], the responders at 100 mg/kg stood at 30% in experiment [2] (0.25 h, 15 Min.) and 10% in experiment [2] (0.5 h, 30 Min.).

In the case of `COc1nncc(-c2cccs2)n1` [Example 66, 3-methoxy-5-(2'-thienyl)-1,2,4-triazine], in experiment [2] (0.25 h, 15 Min.), the responders at 25 mg/kg is 20%, the responders at 50 mg/kg worked out at 80% and the responders at 60 mg/kg was determined as 100%. For the same compound, in experiment [2] (0.5 h, 30 Min.), the responders at 25 mg/kg came to 10%, the responders at 50 mg/kg amounted to 50% and the responders at 60 mg/kg stood at 80%. For the same compound, in experiment [2] (1 h, 60 Min), the responders at 50 mg/kg was determined as 20% and the responders at 60 mg/kg stood at 40%.

As for `CSc1nncc(-c2ccc(C)cc2)n1` [Example 72, 3-methylthio-(4'-methylphenyl)-1,2,4-triazine], the responders at 100 mg/kg in experiment [2] (0.25 h, 15 Min.) worked out at 20%.

With `CCOc1ccc(-c2cnnc(SC)n2)cc1` [Example 88, 3-methylthio-5-(4'-ethoxyphenyl)-1,2,4-triazine], the responders at 100 mg/kg in experiment [2] (0.25 h, 15 Min.) is 10%.

These data come from patent US4157392A, “Pharmacologically active substituted 1,2,4-triazines” (Diamond Shamrock Corporation, priority 1978, dated 1979).
